Target: T1, DPP-IV (Homo sapiens, UniProt P27487)
T1 construct: Soluble human DPP-IV lacking the transmembrane anchor (Gly31-Pro766) was expressed in a recombinant YEAST-strain; Pre-Pro-alpha-mating factor leader (secretion fusion) (N, cleaved yes); made in house
Assay: Inhibition of DPP-IV peptidase activity, continuous fluorimetric assay (Gly-Pro-AMC cleavage)
Format: biochemical, human and porcine
Conditions: IC50, inhibition of DPP-IV peptidase activity; 50 pM DPP-IV, 16 μM Gly-Pro-AMC, pH 7.4, 25° C.; values grouped in 3 classes
Procedure: Inhibition of DPP-IV peptidase activity was monitored with a continuous fluorimetric assay. This assay is based on the cleavage of the substrate Gly-Pro-AMC (Bachem) by DPP-IV, releasing free AMC. The assay is carried out in 96-well microtiterplates. In a total volume of 100 μL, compounds are preincubated with 50 pM DPP-IV employing a buffer containing 10 mM Hepes, 150 mM NaCl, 0.005% Tween 20 (pH 7.4). […] The final concentration of DMSO is 1%. The inhibitory potential of the compounds were determined.
Soluble human DPP-IV lacking the transmembrane anchor (Gly31-Pro766) was expressed in a recombinant YEAST-strain as Pre-Pro-alpha-mating fusion. The secreted product (rhuDPP-IV-Gly31-Pro766) was purified from fermentation broth (>90% purity).

T1 sequence (P27487 31-766): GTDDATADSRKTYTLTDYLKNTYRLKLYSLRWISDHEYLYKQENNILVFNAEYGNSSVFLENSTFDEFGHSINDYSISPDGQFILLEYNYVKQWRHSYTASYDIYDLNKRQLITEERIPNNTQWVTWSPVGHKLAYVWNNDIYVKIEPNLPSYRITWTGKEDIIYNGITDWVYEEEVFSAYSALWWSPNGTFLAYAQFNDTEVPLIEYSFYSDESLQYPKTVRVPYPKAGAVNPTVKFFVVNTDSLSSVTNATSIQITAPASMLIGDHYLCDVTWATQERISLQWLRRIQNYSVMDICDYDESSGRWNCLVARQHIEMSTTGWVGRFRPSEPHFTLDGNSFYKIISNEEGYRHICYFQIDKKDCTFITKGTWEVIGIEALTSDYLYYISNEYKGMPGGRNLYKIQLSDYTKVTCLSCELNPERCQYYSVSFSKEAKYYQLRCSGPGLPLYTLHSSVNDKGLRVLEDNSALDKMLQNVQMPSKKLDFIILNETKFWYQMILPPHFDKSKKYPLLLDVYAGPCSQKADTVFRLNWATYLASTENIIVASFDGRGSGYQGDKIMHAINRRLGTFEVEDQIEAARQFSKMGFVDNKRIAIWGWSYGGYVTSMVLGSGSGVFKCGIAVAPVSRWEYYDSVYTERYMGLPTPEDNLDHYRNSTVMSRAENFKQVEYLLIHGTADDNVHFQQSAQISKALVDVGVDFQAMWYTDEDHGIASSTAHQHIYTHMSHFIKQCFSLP

SMILES | IC50
CN(C(=O)C[C@H](N)Cc1ccccc1F)[C@@H](CN1CCCC1)c1ccccc1 [Example 179, (R)-3-Amino-4-(2-fluoro-phenyl)-N-methyl-N-(1-phenyl-2-pyrrolidin-1-yl-ethyl)-butyramide Formic Acid] | 101 to 1000 nM

Same assay, conditions: inhibition of DPP-IV peptidase activity; 50 pM DPP-IV, 16 μM Gly-Pro-AMC, pH 7.4, 25° C.; values grouped in 3 classes; read-out: IC50

SMILES | IC50
N[C@@H](CC(=O)N[C@@H](CN1CCCCC1)c1ccccc1)Cc1ccccc1F [Example 173] | 101 to 1000 nM
CN(Cc1cn2ccccc2n1)C(=O)C[C@H](N)Cc1ccccc1F [Example 175] | 1000 to 2000 nM
N[C@H](Cc1ccccc1F)CS(=O)(=O)NCc1ccc(C(F)(F)F)nc1 [Example 191, (R)-2-Amino-3-(2-fluoro-phenyl)-Propane-1-sulphonic acid (6-trifluoromethyl-pyridin-3-ylmethyl)-amide] | 101 to 1000 nM

Other lines, results leading:

IC50 | SMILES
101 to 1000 nM | CC(NC(=O)C[C@H](N)Cc1ccccc1F)c1ccc(-n2ccnc2)cc1 (stereo partly drawn) [Example 174]
< 100 nM | CN(CC(c1ccccc1)N1CCOCC1)C(=O)C[C@H](N)Cc1ccccc1F (stereo partly drawn) [Example 177]
< 100 nM | CN(CC(c1ccccc1Cl)N1CCCC1)C(=O)C[C@H](N)Cc1ccccc1F (stereo partly drawn) [Example 178]
101 to 1000 nM | N[C@H](Cc1ccccc1F)CS(=O)(=O)NCc1cccc(C(F)(F)F)c1 [Example 192, (R)-2-Amino-3-(2-fluoro-phenyl)-propane-1-sulphonic acid 3-trifluoromethyl-benzyl-amide]
101 to 1000 nM | CN(Cc1cccc(C(F)(F)F)c1)S(=O)(=O)C[C@H](N)Cc1ccccc1F [Example 193, (R)-2-Amino-3-(2-fluoro-phenyl)-propane-1-sulphonic acid methyl-(3-trifluoromethyl-benzyl)-amide]

Source: US20070197522A1, “Dpp-iv inhibitors” (priority 2004, published 2007)
